Data set [1] is classed as physicochemical.
In a further data set the target is mPrP(23–230) monomer (Mus musculus, UniProt P04925). The settings on record: pH 6.
Data set [2] is classed as physicochemical. As to conditions: pH 3.7.

“And” between values parts separate entries of the source, which are not always exact repeats. Identical values can stand only once. Like-named read-outs stand apart in the source and are kept apart here.

Sequence of mPrP(23–230) monomer (P04925 23-230 limits assumed): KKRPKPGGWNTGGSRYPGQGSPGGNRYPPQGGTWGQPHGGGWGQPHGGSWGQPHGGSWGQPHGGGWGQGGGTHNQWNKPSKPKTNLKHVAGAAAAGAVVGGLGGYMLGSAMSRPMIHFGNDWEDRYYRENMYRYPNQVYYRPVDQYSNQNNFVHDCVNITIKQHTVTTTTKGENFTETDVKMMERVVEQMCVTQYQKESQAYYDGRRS

Consider “Ac-NLKHVAGAAAAGAVVGGLGG-NH2 [mPrP(107–126)]”, for which the “monomer concentration remained in solution after fibrillization” value in data set [1] (pH 7.4) was 12.4 µM and 11.1 µM and 6.6 µM. Besides, at mPrP(23–230) monomer, the “average lag time of amyloid formation of mPrP(23–230) relative to unseeded reaction” value was “slightly prolonged” and the “cross-seeding effect on mPrP(23–230) monomer” value was “no seeding effect”.
Consider “Ac-YMLGSAMSRPMIHFGND-NH2 [mPrP(127–143)]”, for which the “average lag time for amyloidogenesis” value in data set [2] was “hardly detectable”. Also, the “monomer concentration remained in solution after fibrillization” value in data set [1] (pH 3.7) is 32.6 µM and 35.6 µM and 27.2 µM. Moreover, the “cross-seeding effect on mPrP(23–230) monomer” value at mPrP(23–230) monomer is “induced immediately”.

These data come from PMC3700907 (PLoS ONE, 2013).
